Source: patent US9776995B2, “Bicyclic sulfonamide compounds as sodium channel inhibitors” (AMGEN INC., priority 2013, dated 2017)
Like-named read-outs stand apart in the source and are kept apart here. Blank lines part the entries; values can stand above or below the molecule they belong to.

Target: Nav 1.7 (Homo sapiens (Human), UniProt Q15858)
Experiment: in-vitro Nav 1.7 PX data
Assay type: cell-based

Nav 1.7, sequence (Q15858 whole entry): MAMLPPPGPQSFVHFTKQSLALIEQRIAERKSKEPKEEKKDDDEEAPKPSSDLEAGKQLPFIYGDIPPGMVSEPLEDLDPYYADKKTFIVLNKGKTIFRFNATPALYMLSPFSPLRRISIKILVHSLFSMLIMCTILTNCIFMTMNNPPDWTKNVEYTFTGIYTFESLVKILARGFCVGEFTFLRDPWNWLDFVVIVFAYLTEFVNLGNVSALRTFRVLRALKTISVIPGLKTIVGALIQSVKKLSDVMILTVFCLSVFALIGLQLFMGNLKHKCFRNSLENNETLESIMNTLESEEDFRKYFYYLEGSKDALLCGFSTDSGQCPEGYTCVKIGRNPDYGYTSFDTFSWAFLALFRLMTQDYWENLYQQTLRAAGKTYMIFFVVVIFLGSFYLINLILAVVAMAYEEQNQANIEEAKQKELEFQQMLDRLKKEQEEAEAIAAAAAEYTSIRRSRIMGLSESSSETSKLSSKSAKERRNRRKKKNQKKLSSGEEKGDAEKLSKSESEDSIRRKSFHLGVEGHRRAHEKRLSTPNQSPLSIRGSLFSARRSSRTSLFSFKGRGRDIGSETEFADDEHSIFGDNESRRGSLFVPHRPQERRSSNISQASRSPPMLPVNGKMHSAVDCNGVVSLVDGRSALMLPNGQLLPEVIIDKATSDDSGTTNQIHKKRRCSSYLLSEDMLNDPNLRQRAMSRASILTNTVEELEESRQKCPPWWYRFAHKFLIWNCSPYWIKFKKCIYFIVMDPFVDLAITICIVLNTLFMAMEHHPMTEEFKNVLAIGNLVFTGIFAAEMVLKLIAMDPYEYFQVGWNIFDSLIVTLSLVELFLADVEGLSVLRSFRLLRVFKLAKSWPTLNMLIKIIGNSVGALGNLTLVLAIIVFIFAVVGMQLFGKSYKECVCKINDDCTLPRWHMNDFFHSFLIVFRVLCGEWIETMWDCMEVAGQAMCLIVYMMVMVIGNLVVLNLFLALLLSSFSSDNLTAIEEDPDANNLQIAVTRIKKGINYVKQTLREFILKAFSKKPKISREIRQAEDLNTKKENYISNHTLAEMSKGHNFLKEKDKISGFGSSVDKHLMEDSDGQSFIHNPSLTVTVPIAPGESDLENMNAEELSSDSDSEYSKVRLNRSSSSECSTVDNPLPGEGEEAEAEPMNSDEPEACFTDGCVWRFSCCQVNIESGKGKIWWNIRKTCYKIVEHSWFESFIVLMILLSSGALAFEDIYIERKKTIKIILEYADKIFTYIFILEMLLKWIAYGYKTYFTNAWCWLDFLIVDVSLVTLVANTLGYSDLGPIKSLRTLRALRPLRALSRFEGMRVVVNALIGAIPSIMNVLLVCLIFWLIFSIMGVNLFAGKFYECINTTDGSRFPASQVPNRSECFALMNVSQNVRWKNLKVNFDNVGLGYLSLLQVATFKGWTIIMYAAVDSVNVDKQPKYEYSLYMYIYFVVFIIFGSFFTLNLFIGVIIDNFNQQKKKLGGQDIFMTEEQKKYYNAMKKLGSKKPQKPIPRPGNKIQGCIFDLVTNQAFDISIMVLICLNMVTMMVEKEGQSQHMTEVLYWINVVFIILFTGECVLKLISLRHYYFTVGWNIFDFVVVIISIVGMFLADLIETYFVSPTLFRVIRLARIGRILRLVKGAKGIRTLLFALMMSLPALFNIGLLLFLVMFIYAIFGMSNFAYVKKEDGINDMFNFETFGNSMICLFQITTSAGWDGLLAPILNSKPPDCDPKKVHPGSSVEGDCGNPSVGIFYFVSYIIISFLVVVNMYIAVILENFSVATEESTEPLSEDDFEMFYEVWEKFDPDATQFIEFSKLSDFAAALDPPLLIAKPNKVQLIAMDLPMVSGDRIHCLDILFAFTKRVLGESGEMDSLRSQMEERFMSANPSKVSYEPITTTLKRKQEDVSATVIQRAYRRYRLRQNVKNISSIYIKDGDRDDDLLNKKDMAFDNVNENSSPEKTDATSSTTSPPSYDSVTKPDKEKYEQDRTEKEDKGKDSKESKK

- IC50 (PatchXpress (PX), in vitro): 0.0595 µM
SMILES: COc1cc(-c2ccc(Cl)c(C)c2)c(F)cc1-c1nccc2cc(S(=O)(=O)Nc3ccon3)ccc12 [Example 90, 1-(4′-chloro-2-fluoro-5-methoxy-3′-methyl-4-biphenylyl)-N-3-isoxazolyl-6-isoquinolinesulfonamide]

- IC50 (in-vitro PX): 1.87 µM
SMILES: COc1nc(N(C)C)c(Cl)cc1-c1nccc2cc(S(=O)(=O)Nc3nncs3)ccc12 [Example 242, 1-(5-chloro-6-(dimethylamino)-2-methoxy-3-pyridinyl)-N-1,3,4-thiadiazol-2-yl-6-isoquinolinesulfonamide]

- IC50 (in-vitro PX (PatchXpress) data): 0.0078 µM
SMILES: COc1cc(-c2ccc(F)c(Cl)c2)c(Cl)cc1-c1ncnc2cc(S(=O)(=O)Nc3ccon3)ccc12 [Example 19, 4-(2,3′-DICHLORO-4′-FLUORO-5-METHOXY-[1,1′-BIPHENYL]-4-YL)-N-(ISOXAZOL-3-YL)QUINAZOLINE-7-SULFONAMIDE]

- IC50 (in-vitro Nav 1.7 PX data): 7.68 µM
SMILES: Cc1ccc(OCC2CC2)cc1-c1nccc2cc(S(=O)(=O)Nc3ccncn3)ccc12 [Example 153, 1-(5-(cyclopropylmethoxy)-2-methylphenyl)-N-4-pyrimidinyl-6-isoquinolinesulfonamide]

- IC50 (in-vitro PX): 0.0382 µM
SMILES: COc1cc(-c2ccc(F)c(C)c2)c(Cl)cc1-c1ncnc2cc(S(=O)(=O)Nc3ccon3)ccc12 [Example 213, 4-(2-chloro-4′-fluoro-5-methoxy-3′-methyl-4-biphenylyl)-N-3-isoxazolyl-7-quinazolinesulfonamide]

- IC50 (in-vitro PX (PatchXpress) data): 2.61 µM
SMILES: COc1cc(-c2ncnc3cc(S(=O)(=O)Nc4ccon4)ccc23)c(C)cc1-c1ccc(Cl)c(C)c1 [Example 34]

- IC50 (in-vitro PX): 0.0515 µM
SMILES: COc1cc(-c2cccc(F)c2)c(Cl)cc1-c1ncnc2cc(S(=O)(=O)Nc3cnsn3)ccc12 [Example 207, 4-(2-chloro-3′-fluoro-5-methoxy-4-biphenylyl)-N-1,2,5-thiadiazol-3-yl-7-quinazolinesulfonamide]

- IC50 (PatchXpress (PX), in vitro): 0.0677 µM
SMILES: COc1cc(-c2cc(F)cnc2OC)c(F)cc1-c1nccc2cc(S(=O)(=O)Nc3ccon3)ccc12 [Example 93, 1-(5-fluoro-4-(5-fluoro-2-methoxy-3-pyridinyl)-2-methoxyphenyl)-N-3-isoxazolyl-6-isoquinolinesulfonamide]

SMILES: Cn1nccc1-c1cc(-c2cc(F)cc(F)c2)ccc1-c1nccc2cc(S(=O)(=O)Nc3ccon3)ccc12 [Example 4, 1-(3′,5′-DIFLUORO-3-(1-METHYL-1H-PYRAZOL-5-YL)-[1,1′-BIPHENYL]-4-YL)-N-(ISOXAZOL-3-YL)ISOQUINOLINE-6-SULFONAMIDE 2,2,2-TRIFLUOROACETATE]
- IC50 (in-vitro PX data): 0.148 µM

- IC50 (in-vitro PX): 0.0218 µM
SMILES: COc1cc(-c2ccc(Cl)c(C)c2)c(Cl)cc1-c1ncnc2cc(S(=O)(=O)Nc3ccon3)ccc12 [Example 204, 4-(2,4′-dichloro-5-methoxy-3′-methyl-4-biphenylyl)-N-3-isoxazolyl-7-quinazolinesulfonamide]

- IC50 (PatchXpress (PX), in vitro): 0.101 µM
SMILES: COc1cc(-c2ccc(C)c(Cl)c2)c(F)cc1-c1nccc2cc(S(=O)(=O)Nc3ccon3)ccc12 [Example 91, 1-(3′-chloro-2-fluoro-5-methoxy-4′-methyl-4-biphenylyl)-N-3-isoxazolyl-6-isoquinolinesulfonamide]

- IC50 (in-vitro Nav 1.7 PX data): 3.3 µM
SMILES: COc1cc(-c2nccc3cc(S(=O)(=O)Nc4ccon4)ccc23)c(C)cc1-c1ccc(Cl)c(C)c1 [Example 35]

- IC50 (in-vitro Nav 1.7 PX data): 3.84 µM
SMILES: COc1ccc(C)c(-c2cc(C)c(-c3ncnc4cc(S(=O)(=O)Nc5ccon5)ccc34)cc2OC)c1 [Example 173, 4-(2,5′-dimethoxy-2′,5-dimethyl-4-biphenylyl)-N-3-isoxazolyl-7-quinazolinesulfonamide]

- IC50 (in-vitro Nav 1.7 PX data): 6 µM
SMILES: COc1cc(C#N)c(-c2cc(F)cc(F)c2)cc1-c1nccc2cc(S(=O)(=O)Nc3nncs3)ccc12 [Example 150, 1-(6-cyano-3′,5′-difluoro-4-methoxy-3-biphenylyl)-N-1,3,4-thiadiazol-2-yl-6-isoquinolinesulfonamide]

SMILES: COc1nnc(NS(=O)(=O)c2ccc3c(-c4ccc(-c5cc(F)cc(F)c5)cc4OC)nccc3c2)s1 [Example 8, 1-(3′,5′-DIFLUORO-3-METHOXY-[1,1′-BIPHENYL]-4-YL)-N-(5-METHOXY-1,3,4-THIADIAZOL-2-YL)ISOQUINOLINE-6-SULFONAMIDE]
- IC50: 3.29 µM
